From patent US8648066B2 (Exelixis, Inc., priority 2009, dated 2014)

Molecular target: mTOR/GbL/Raptor (mTORC1) (Homo sapiens, UniProt P42345)
Assay: mTOR/GbL/Raptor (mTORC1) ELISA assay
Type: biochemical
Details: phosphorylation of 4E-BP1; 0.2 nM mTORC1, 10 μM ATP; read-out: IC50 in this assay (mTORC1 ELISA)
Outline: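 ELISA read-out: phospho-4E-BP1 captured on Ni-chelate plates and detected with anti-phospho antibody plus HRP-anti-IgG luminescence. The kinase step ran 120 min at ambient temperature with 0.2 nM human mTORC1, 10 µM ATP, 50 nM His-4E-BP1, 10 mM MnCl2, pH 7.2 HEPES.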

IC50 [nM]	SMILES
10 to 50	Cc1nc2ncc(-c3ccc4c(c3)CN(c3nc(CNCC(F)(F)F)nc5c3CC(C)(C)CC5)CCO4)cc2[nH]1 [Example 591, N-({6,6-dimethyl-4-[7-(2-methyl-1H-imidazo[4,5-b]pyridin-6-yl)-2,3-dihydro-1,4-benzoxazepin-4(5H)-yl]-5,6,7,8-tetrahydroquinazolin-2-yl}methyl)-2,2,2-trifluoroethanamine]
≤ 10	CC1(C)CCc2ncnc(N3CCOc4ccc(-c5cnc(N)c(S(=O)(=O)N6C[C@@H]7C[C@H]6CN7)c5)cc4C3)c2C1 [Example 436, 3-[(1S,4S)-2,5-diazabicyclo[2.2.1]hept-2-ylsulfonyl]-5-[4-(6,6-dimethyl-5,6,7,8-tetrahydroquinazolin-4-yl)-2,3,4,5-tetrahydro-1,4-benzoxazepin-7-yl]pyridin-2-amine]
50 to 250	CC(C)(CO)CNS(=O)(=O)c1cc(-c2ccc3c(c2)CN(c2ncnc4c2CC(C)(C)CC4)CCO3)cnc1N [Example 374, 2-amino-5-[4-(6,6-dimethyl-5,6,7,8-tetrahydroquinazolin-4-yl)-2,3,4,5-tetrahydro-1,4-benzoxazepin-7-yl]-N-(3-hydroxy-2,2-dimethylpropyl)pyridine-3-sulfonamide]
250 to 1000	COc1ccc(-c2ccc3c(c2)CN(c2nc(CN(C)C)nc4c2CC(C)(C)CC4)CCO3)cc1OC [Example 323, 1-(4-{7-[3,4-bis(methyloxy)phenyl]-2,3-dihydro-1,4-benzoxazepin-4(5H)-yl}-6,6-dimethyl-5,6,7,8-tetrahydroquinazolin-2-yl)-N,N-dimethylmethanamine]
250 to 1000	Cc1nc(CN(C)C)nc(N2CCOc3ccc(-c4cnc5sc(N)nc5c4)cc3C2)c1Br [Example 673, 6-(4-{5-bromo-2-[(dimethylamino)methyl]-6-methylpyrimidin-4-yl}-2,3,4,5-tetrahydro-1,4-benzoxazepin-7-yl)[1,3]thiazolo[5,4-b]pyridin-2-amine]
250 to 1000	CC1(C)CCc2ncnc(N3CCOc4ccc(-c5cnc6nccnc6c5)cc4C3)c2C1 [Example 477, 4-(6,6-dimethyl-5,6,7,8-tetrahydroquinazolin-4-yl)-7-pyrido[2,3-b]pyrazin-7-yl-2,3,4,5-tetrahydro-1,4-benzoxazepine]
10 to 50	Cc1nc2ncc(-c3ccc4c(c3)CN(c3nc(CNC(C)C5CC5)nc5c3CC(C)(C)CC5)CCO4)cc2[nH]1 (centres unmarked) [Example 360, 1-cyclopropyl-N-({6,6-dimethyl-4-[7-(2-methyl-1H-imidazo[4,5-b]pyridin-6-yl)-2,3-dihydro-1,4-benzoxazepin-4(5H)-yl]-5,6,7,8-tetrahydroquinazolin-2-yl}methyl)ethanamine]
250 to 1000	CC1(C)CCc2ncnc(N3CCOc4ccc(-c5cnc(Nc6ccccc6)c(NS(C)(=O)=O)c5)cc4C3)c2C1 [Example 629, N-{5-[4-(6,6-dimethyl-5,6,7,8-tetrahydroquinazolin-4-yl)-2,3,4,5-tetrahydro-1,4-benzoxazepin-7-yl]-2-(phenylamino)pyridin-3-yl}methanesulfonamide]
50 to 250	CCc1c(C)ncnc1N1CCOc2ccc(-c3cnc4nc(C)[nH]c4c3)cc2C1 [Example 470, 4-(5-ethyl-6-methylpyrimidin-4-yl)-7-(2-methyl-1H-imidazo[4,5-b]pyridin-6-yl)-2,3,4,5-tetrahydro-1,4-benzoxazepine]
10 to 50	CC1(C)CCc2ncnc(N3CCOc4ccc(-c5cnc(N)c(S(=O)(=O)CCCO)c5)cc4C3)c2C1 [Example 430, 3-({2-amino-5-[4-(6,6-dimethyl-5,6,7,8-tetrahydroquinazolin-4-yl)-2,3,4,5-tetrahydro-1,4-benzoazepin-7-yl]pyridin-3-yl}sulfonyl)propan-1-ol]
10 to 50	CC1(C)CCc2ncnc(N3CCOc4ccc(-c5cnc(N)c(S(=O)(=O)NCC6CCCCN6)c5)cc4C3)c2C1 (centres unmarked) [Example 376, 2-amino-5-[4-(6,6-dimethyl-5,6,7,8-tetrahydroquinazolin-4-yl)-2,3,4,5-tetrahydro-1,4-benzoxazepin-7-yl]-N-(piperidin-2-ylmethyl)pyridine-3-sulfonamide]
≤ 10	CC(=O)OCc1nc(C)c(Cc2ccc(F)cc2)c(N2CCOc3ccc(-c4ccc5[nH]c(C)nc5c4)cc3C2)n1 [Example 311, {5-[4(fluorophenyl)methyl]-4-methyl-6-[7-(2-methyl-1H-benzimidazol-5-yl)-2,3-dihydro-1,4-benzoxazepin-4(5H)-yl]pyrimidin-2-yl}methyl acetate]
10 to 50	Cc1nc2ncc(-c3ccc4c(c3)CN(c3ncnc5c3CCC(C)C5)CCO4)cc2[nH]1 (centres unmarked) [Example 556, 7-(2-methyl-1H-imidazo[4,5-b]pyridin-6-yl)-4-(7-methyl-5,6,7,8-tetrahydroquinazolin-4-yl)-2,3,4,5-tetrahydro-1,4-benzoxazepine]

The next lines start with the compound.

SMILES	IC50 [nM]
CCNc1nc2ccc(-c3ccc4c(c3)CN(c3ccnc5cc(F)ccc35)CCO4)cc2[nH]1 [Example 268, N-ethyl-6-[4-(7-fluoroquinolin-4-yl)-2,3,4,5-tetrahydro-1,4-benzoxazepin-7-yl]-1H-benzimidazol-2-amine]	50 to 250
CCc1ncnc(N2CCOc3ccc(-c4cnc5nc(C)[nH]c5c4)cc3C2)c1C [Example 245, 4-(6-ethyl-5-methylpyrimidin-4-yl)-7-(2-methyl-1H-imidazo[4,5-b]pyridin-6-yl)-2,3,4,5-tetrahydro-1,4-benzoxazepine]	50 to 250
Cc1ncnc(N2CCOc3ccc(-c4ccc(C(N)=O)cc4)cc3C2)c1Cc1ccc(F)cc1 [Example 170, 4-(4-{5-[(4-fluorophenyl)methyl]-6-methylpyrimidin-4-yl}-2,3,4,5-tetrahydro-1,4-benzoxazepin-7-yl)benzamide]	≤ 10
Cc1nc2ccc(-c3ccc4c(c3)CN(c3ncncc3C)CCO4)cc2[nH]1 [Example 44, 7-(2-methyl-1H-benzimidazol-6-yl)-4-(5-methylpyrimidin-4-yl)-2,3,4,5-tetrahydro-1,4-benzoxazepine]	1000 to 2000
Cc1ncnc(N2CCOc3ccc(-c4cnc(N)s4)cc3C2)c1Cc1ccc(F)cc1 [Example 124, 5-(4-{5-[(4-fluorophenyl)methyl]-6-methylpyrimidin-4-yl}-2,3,4,5-tetrahydro-1,4-benzoxazepin-7-yl)-1,3-thiazol-2-amine]	≤ 10
CC1(C)CCc2ncnc(N3CCOc4ccc(-c5cnc6[nH]c(C7CC7)nc6c5)cc4C3)c2C1 [Example 224, 7-(2-cyclopropyl-3H-imidazo[4,5-b]pyridin-6-yl)-4-(6,6-dimethyl-5,6,7,8-tetrahydroquinazolin-4-yl)-2,3,4,5-tetrahydro-1,4-benzoxazepine]	≤ 10
Cc1ccc(Cc2c(C)ncnc2N2CCOc3ccc(-c4ccc5nc(C)[nH]c5c4)cc3C2)cc1 [Example 78, 7-(2-methyl-1H-benzimidazol-6-yl)-4-{6-methyl-5-[(4-methylphenyl)methyl]pyrimidin-4-yl}-2,3,4,5-tetrahydro-1,4-benzoxazepine]	≤ 10
CCNc1nc2ccc(-c3ccc4c(c3)CN(c3nc(CC)nc5cc(OC)ccc35)CCO4)cc2[nH]1 [Example 279, N-ethyl-6-{4-[2-ethyl-7-(methyloxy)quinazolin-4-yl]-2,3,4,5-tetrahydro-1,4-benzoxazepin-7-yl}-1H-benzimidazol-2-amine]	250 to 1000
CCOc1ccc2ncnc(N3CCOc4ccc(-c5ccc6nc(C)[nH]c6c5)cc4C3)c2c1 [Example 159, 4-[6-(ethyloxy)quinazolin-4-yl]-7-(2-methyl-1H-benzimidazol-6-yl)-2,3,4,5-tetrahydro-1,4-benzoxazepine]	50 to 250
COc1ccc2c(N3CCOc4ccc(-c5cnc6nc(N)[nH]c6c5)cc4C3)nc(C)nc2c1 [Example 289, 6-{4-[2-methyl-7-(methyloxy)quinazolin-4-yl]-2,3,4,5-tetrahydro-1,4-benzoxazepin-7-yl}-1H-imidazo[4,5-b]pyridin-2-amine]	10 to 50
COc1cccc(Cc2c(C)ncnc2N2CCOc3ccc(-c4ccc5nc(C)[nH]c5c4)cc3C2)c1 [Example 81, 7-(2-methyl-1H-benzimidazol-6-yl)-4-(6-methyl-5-{[3-(methyloxy)phenyl]methyl}pyrimidin-4-yl)-2,3,4,5-tetrahydro-1,4-benzoxazepine]	10 to 50
COc1ccc2c(N3CCOc4ccc(-c5cnc(N)c([S+]([O-])C[C@@H](C)CO)c5)cc4C3)ncnc2c1 (stereo partly drawn) [Example 302, (2S)-3-[(2-amino-5-{4-[7-(methyloxy)quinazolin-4-yl]-2,3,4,5-tetrahydro-1,4-benzoxazolin-7-yl}pyridin-3-yl)sulfinyl]-2-methylpropan-1-ol]	250 to 1000
COc1ccc2c(N3CCOc4ccc(-c5ccc6[nH]ncc6c5)cc4C3)nc(C)nc2c1 [Example 274, 7-(1H-indazol-5-yl)-4-[2-methyl-7-(methyloxy)quinazolin-4-yl]-2,3,4,5-tetrahydro-1,4-benzoxazepine]	≥ 2000
Cc1nc2ccc(-c3ccc4c(c3)CN(c3ncnc(Nc5ccccc5)c3C)CCO4)cc2[nH]1 [Example 77, 5-methyl-6-[7-(2-methyl-1H-benzimidazol-6-yl)-2,3-dihydro-1,4-benzoxazepine-4(5H)-yl]-N-phenylpyrimidin-4-amine]	1000 to 2000
Cc1nc(N)sc1-c1ccc2c(c1)CN(c1ncnc(C)c1Cc1ccc(F)cc1)CCO2 [Example 154, 5-(4-{5-[(4-fluorophenyl)methyl]-6-methylpyrimidin-4-yl}-2,3,4,5-tetrahydro-1,4-benzoxazepin-7-yl)-4-methyl-1,3-thiazol-2-amine]	50 to 250
Cc1nc2ccc(-c3ccc4c(c3)CN(c3ncnc(C)c3Cc3ccc(Cl)c(N(C)C)c3)CCO4)cc2[nH]1 [Example 93, 2-chloro-N,N-dimethyl-5-({4-methyl-6-[7-(2-methyl-1H-benzimidazol-6-yl)-2,3-dihydro-1,4-benzoxazepin-4(5H)-yl]pyrimidin-5-yl}methyl)aniline]	≤ 10
